Here are results for eleven compounds from ChEMBL document CHEMBL1201862, “PubChem BioAssay data set” (2004).

Among the test systems are SF-295; HOP-92; SK-OV-3; NCI-H23; TK-10; HCT-15; RXF 393; M14; HOP-62; EKVX; OVCAR-4; SNB-75; ACHN; 786-0; UACC-62; SK-MEL-2; LXFL 529; MOLT-4; SK-MEL-28.
Holding throughout (assay): growth of human tumour cells (NCI), 48 h

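Test compounds were applied to cells in 96-well plates for 48 hours at 5 doses. Here, GI50 denotes the concentration required for 50% inhibition of growth.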 The source made the active and inactive calls. No stated cut-off is given here; in the data, active = GI50 up to about 1.1 µM and inactive = higher.

On to `O=C1Nc2cc(Cl)ccc2N=CC1NC(=O)C(c1ccccc1)c1ccccc1Cl` (stereo unspecified), for which the GI50 was > 100 µM (inactive) in the experiment on SF-295; > 100 µM (inactive) in the experiment on HOP-92; > 100 µM (inactive) with SK-OV-3; > 100 µM (inactive) in the experiment on NCI-H23; > 100 µM (inactive) in the experiment with TK-10; above 100 µM in the experiment on HCT-15. Also, the GI50 with RXF 393, in the experiment with M14, with HOP-62, in the experiment on EKVX, in the experiment with OVCAR-4 and in the experiment with SNB-75 was > 100 µM (inactive) in each case. The GI50 in the experiment with ACHN, with 786-0, with UACC-62, in the experiment with SK-MEL-2, with LXFL 529 and with MOLT-4 was > 100 µM (inactive) throughout. The GI50 with SK-MEL-28 is > 100 µM (inactive).
Take `CN(C)CCCSc1c2ccccc2nc2cc(NCC(=O)Nc3ccccc3-c3ccccc3NC(=O)CNc3ccc4c(SCCCN(C)C)c5ccccc5nc4c3)ccc12`: the GI50 in the experiment on SF-295 is > 100 µM (inactive); in the experiment with HOP-92, > 100 µM (inactive); with SK-OV-3 it was > 100 µM (inactive); with NCI-H23, > 100 µM (inactive); with TK-10, > 100 µM (inactive); in the experiment on HCT-15, above 100 µM. Also, the GI50 in the experiment on RXF 393, in the experiment on M14, with HOP-62, in the experiment with EKVX, in the experiment on OVCAR-4 and with SNB-75 was > 100 µM (inactive) each time. Moreover, the GI50 in the experiment on ACHN was > 100 µM (inactive); in the experiment on 786-0, > 100 µM (inactive); with UACC-62, > 100 µM (inactive); in the experiment with SK-MEL-2, > 100 µM (inactive); in the experiment on LXFL 529 it was > 100 µM (inactive); in the experiment with MOLT-4 it was 26.5 µM (inactive). Further, in the experiment on SK-MEL-28, the GI50 is > 100 µM (inactive).
Consider `COc1ccc(-c2cc(Cc3cccs3)c(=O)[nH]n2)cc1`, for which the GI50 is > 100 µM (inactive) with SF-295; 49.9 µM (inactive) in the experiment on HOP-92; > 100 µM (inactive) in the experiment with SK-OV-3; 56.8 µM (inactive) in the experiment on NCI-H23; > 100 µM (inactive) in the experiment with TK-10; 49 µM in the experiment with HCT-15. Moreover, the GI50 with RXF 393 was 83.8 µM (inactive); in the experiment on EKVX it was > 100 µM (inactive); with SNB-75, 29.5 µM (inactive); in the experiment on ACHN it was 32.7 µM (inactive); in the experiment on 786-0, > 100 µM (inactive); in the experiment with UACC-62, 56.9 µM (inactive). Besides, the GI50 in the experiment on SK-MEL-2 was > 100 µM (inactive); in the experiment on LXFL 529, 53.8 µM (inactive); in the experiment with SK-MEL-28, 95.1 µM (inactive).
Consider `O=C(CO[N+](=O)[O-])OCC(=O)c1ccccc1`, for which the GI50 in the experiment with SF-295 was > 100 µM (inactive); with HOP-92, > 100 µM (inactive); with SK-OV-3 it was > 100 µM (inactive); with NCI-H23, > 100 µM (inactive); with TK-10, > 100 µM (inactive); with HCT-15 it was above 100 µM. The GI50 in the experiment with RXF 393, in the experiment with M14, in the experiment with HOP-62, with EKVX, in the experiment with OVCAR-4 and with SNB-75 was > 100 µM (inactive) in each case. The GI50 in the experiment on ACHN, in the experiment on 786-0, in the experiment with SK-MEL-2, in the experiment on LXFL 529, in the experiment with MOLT-4 and with SK-MEL-28 was > 100 µM (inactive) each time.
As to `O=C(Nc1ccc(Cl)c(Cl)c1)C(=O)Nn1c(S)nc2ccccc2c1=O`, the GI50 in the experiment on SF-295 was > 100 µM (inactive); in the experiment with HOP-92, 45.3 µM (inactive); with SK-OV-3 it was > 100 µM (inactive); in the experiment with NCI-H23, 76.9 µM (inactive); with TK-10 it was > 100 µM (inactive); with HCT-15 it was above 100 µM. Also, the GI50 in the experiment on RXF 393, in the experiment on M14, with HOP-62, in the experiment on EKVX, in the experiment with OVCAR-4 and in the experiment with SNB-75 was > 100 µM (inactive) each time. In addition, the GI50 in the experiment on ACHN, with 786-0, with UACC-62, with SK-MEL-2, in the experiment on LXFL 529 and with MOLT-4 was > 100 µM (inactive) throughout. The GI50 with SK-MEL-28 was > 100 µM (inactive).
For `CCOc1ccc(NC(=O)/C(Cc2nc3ccccc3nc2O)=N\O)cc1`, the GI50 with HOP-92 is 54.2 µM (inactive); with SK-OV-3, > 100 µM (inactive); in the experiment on NCI-H23, > 100 µM (inactive); in the experiment on TK-10, > 100 µM (inactive); with HCT-15 it was above 100 µM; in the experiment on RXF 393, > 100 µM (inactive). For the same compound, the GI50 with M14 is > 100 µM (inactive); in the experiment on HOP-62 it was > 100 µM (inactive); in the experiment on EKVX it was 75 µM (inactive); with OVCAR-4 it was > 100 µM (inactive); in the experiment with SNB-75, 70.1 µM (inactive); in the experiment with ACHN it was > 100 µM (inactive). Moreover, the GI50 in the experiment with 786-0, in the experiment on UACC-62, in the experiment with SK-MEL-2, in the experiment on LXFL 529, with MOLT-4 and in the experiment with SK-MEL-28 was > 100 µM (inactive) in each case.
`CC(C)C1CO[C@]2(C)CCC(=O)N12` (stereo partly specified): the GI50 in the experiment on SF-295 was > 100 µM (inactive); in the experiment on HOP-92, > 100 µM (inactive); with SK-OV-3, > 100 µM (inactive); with NCI-H23 it was > 100 µM (inactive); with TK-10, > 100 µM (inactive); in the experiment on HCT-15, above 100 µM. The GI50 in the experiment with RXF 393, with M14, with HOP-62, in the experiment with EKVX, with OVCAR-4 and in the experiment on SNB-75 was > 100 µM (inactive) in each case. Also, the GI50 with ACHN, in the experiment on 786-0, in the experiment with UACC-62, in the experiment with SK-MEL-2, in the experiment with LXFL 529 and in the experiment on MOLT-4 was > 100 µM (inactive) in each case. The GI50 in the experiment on SK-MEL-28 was > 100 µM (inactive).
As for `C/C(=N\NS(=O)(=O)c1ccc(C)cc1)C(CN1CCOCC1)C(c1ccccc1)c1c(O)c2ccccc2oc1=O` (stereo unspecified), the GI50 in the experiment on SF-295 is 83 µM (inactive); in the experiment with HOP-92, 59.8 µM (inactive); in the experiment on SK-OV-3, > 100 µM (inactive); with NCI-H23 it was > 100 µM (inactive); in the experiment with TK-10, > 100 µM (inactive); with HCT-15, above 100 µM. Also, the GI50 in the experiment on RXF 393 is 68.2 µM (inactive); in the experiment with M14 it was > 100 µM (inactive); in the experiment on HOP-62 it was > 100 µM (inactive); in the experiment on EKVX, > 100 µM (inactive); with OVCAR-4, > 100 µM (inactive); in the experiment on SNB-75, > 100 µM (inactive). The GI50 in the experiment with ACHN, in the experiment with 786-0, with UACC-62, in the experiment on SK-MEL-2 and in the experiment with LXFL 529 was > 100 µM (inactive) throughout.
`COc1ccc(-c2cc(-c3ccccc3)c(C#N)c(=O)[nH]2)cc1`: the GI50 with SF-295 was > 100 µM (inactive); in the experiment on HOP-92, > 100 µM (inactive); in the experiment on SK-OV-3, > 100 µM (inactive); in the experiment with NCI-H23 it was > 100 µM (inactive); with TK-10, > 100 µM (inactive); in the experiment on HCT-15 it was above 100 µM. For the same compound, the GI50 in the experiment on RXF 393 is > 100 µM (inactive); with M14, > 100 µM (inactive); in the experiment with HOP-62, > 100 µM (inactive); with EKVX it was > 100 µM (inactive); with OVCAR-4 it was > 100 µM (inactive); in the experiment with SNB-75, 57.7 µM (inactive). The GI50 with ACHN, in the experiment with 786-0, with UACC-62, with LXFL 529, in the experiment on MOLT-4 and in the experiment with SK-MEL-28 was > 100 µM (inactive) each time.
Turning to `Nn1c(S)nnc1NNC(=O)C(=O)Nc1cc(Cl)c(Cl)cc1Cl`, the GI50 is > 100 µM (inactive) with SF-295; > 100 µM (inactive) in the experiment on HOP-92; > 100 µM (inactive) in the experiment on SK-OV-3; > 100 µM (inactive) in the experiment with NCI-H23; > 100 µM (inactive) in the experiment on TK-10; above 100 µM with HCT-15. Further, the GI50 was > 100 µM (inactive) in the experiment with RXF 393; > 100 µM (inactive) in the experiment on M14; > 100 µM (inactive) with HOP-62; > 100 µM (inactive) in the experiment with EKVX; > 100 µM (inactive) in the experiment with OVCAR-4; 15.5 µM (inactive) in the experiment on SNB-75. Further, the GI50 in the experiment with ACHN, in the experiment with 786-0, with UACC-62, in the experiment with LXFL 529 and in the experiment on SK-MEL-28 was > 100 µM (inactive) each time.
On to `CCN(CC)CC(C(=O)Nc1c(C)cccc1C)/C(C)=N\NC(=O)C[N+](C)(C)C` (stereo unspecified), for which the GI50 in the experiment on SF-295 is > 100 µM (inactive); in the experiment with HOP-92, > 100 µM (inactive); in the experiment on SK-OV-3, > 100 µM (inactive); in the experiment on NCI-H23 it was > 100 µM (inactive); in the experiment on TK-10 it was > 100 µM (inactive); with HCT-15 it was above 100 µM. Besides, the GI50 in the experiment on RXF 393, with M14, with HOP-62, with OVCAR-4, in the experiment with SNB-75 and with ACHN was > 100 µM (inactive) in each case. The GI50 with 786-0, with UACC-62, in the experiment with LXFL 529, in the experiment on MOLT-4 and with SK-MEL-28 was > 100 µM (inactive) in each case.
